Results taken from ChEMBL document CHEMBL1146976, “Radanamycin, a macrocyclic chimera of radicicol and geldanamycin” (Bioorg Med Chem Lett, 2006).
Active and inactive are the calls of the source. The calls are words filed in the database; no cut-off is given here.

Tests used:
[1] = target: Heat shock protein HSP90 (Homo sapiens) (UniProt P07900+P08238); assay: Inhibition of Hsp90 assessed by degradation of client proteins Her2 and Akt; assay type: protein assay
[2] = tested on: MCF7; assay: Antiproliferative activity against human MCF7 cells; assay type: functional, cell-based

**Q.** Which results are given for `COc1c(O)cc2c(O)c1CC(C)OC(=O)c1c(O)cc(O)c(Cl)c1CCC(=O)N2` (configuration not stated) [RADANAMYCIN]?
**A.** Activity [1]: Active; IC50 [2]: 1.2 µM
